Test results reported in US4242325A, “Phosphorotriamides as urease inhibitors” (priority 1979, dated 1980).

Molecular target: T1, Urease Purified from Proteus mirabilis (Pr-91) (Proteus mirabilis, UniProt P17086)
T1 construct: host or cells: Proteus mirabilis (Pr-91)
Assay: Inhibition of urease purified from Proteus mirabilis (Pr-91)
Type: biochemical
Settings: not given
From the text: The Inhibition of Urease Purified from Proteus mirabilis (Pr-91)
Concentration of Compounds of Formula [drawing 5] for 50% Inhibition of Urease.

T1 sequence (P17086 whole entry): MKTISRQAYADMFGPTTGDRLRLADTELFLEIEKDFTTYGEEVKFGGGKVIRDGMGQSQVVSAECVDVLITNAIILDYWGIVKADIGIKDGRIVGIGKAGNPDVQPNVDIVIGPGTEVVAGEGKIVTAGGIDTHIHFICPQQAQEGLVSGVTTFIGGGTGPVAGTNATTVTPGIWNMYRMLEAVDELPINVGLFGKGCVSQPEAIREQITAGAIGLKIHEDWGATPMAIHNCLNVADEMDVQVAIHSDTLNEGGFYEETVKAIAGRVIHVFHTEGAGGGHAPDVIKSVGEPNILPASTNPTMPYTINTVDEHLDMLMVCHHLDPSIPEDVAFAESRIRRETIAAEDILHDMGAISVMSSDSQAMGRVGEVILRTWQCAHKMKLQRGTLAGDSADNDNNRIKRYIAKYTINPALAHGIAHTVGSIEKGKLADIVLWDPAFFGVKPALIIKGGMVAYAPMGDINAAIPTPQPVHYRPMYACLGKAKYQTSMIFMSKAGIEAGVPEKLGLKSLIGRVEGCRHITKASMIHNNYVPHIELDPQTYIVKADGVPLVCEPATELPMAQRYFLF
T1 sequence (P17088 whole entry, further chain): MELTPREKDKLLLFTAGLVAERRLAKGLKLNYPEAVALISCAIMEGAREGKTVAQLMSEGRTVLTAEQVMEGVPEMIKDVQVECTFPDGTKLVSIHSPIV
T1 sequence (P17087 whole entry, further chain): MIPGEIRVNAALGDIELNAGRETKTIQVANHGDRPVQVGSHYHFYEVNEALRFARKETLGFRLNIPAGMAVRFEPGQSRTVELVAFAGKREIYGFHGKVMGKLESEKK

| Compound | IC50 |
| --- | --- |
| NP(N)(=O)Nc1ccccc1 [Phenyl] | 13 µM |
| N#Cc1ccc(NP(N)(N)=O)cc1 [4-Cyanophenyl, N-(4-Cyanophenyl)phosphorotriamide] | 50 µM |
| Nc1ccc(NP(N)(N)=O)cc1 [4-Aminophenyl, N-(4-Aminophenyl)phosphorotriamide] | 16 µM |
| NP(N)(=O)Nc1cccc(C(F)(F)F)c1 [3-Trifluoromethylphenyl, N-[3-(Trifluoromethyl)phenyl]phosphorotriamide] | 40 µM |
| NP(N)(=O)Nc1ccc([N+](=O)[O-])cc1 [4-Nitrophenyl, N-(4-Nitrophenyl)phosphorotriamide] | 0.35 µM |

Same assay, conditions: urease purified from Proteus mirabilis (Pr-91); read-out: Concentration of compound for 50% inhibition of urease

| Compound | IC50 |
| --- | --- |
| NP(N)(N)=O [H] | 0.12 µM |
